Results from the supplement of paper PMC10307832.

Each cell line was assayed with COc1nc(N)nc2c1ncn2[C@@H]1O[C@H](CO)[C@@H](O)[C@@H]1O [Nelarabine] + CC(C)C[C@H](NC(=O)[C@H](Cc1ccccc1)NC(=O)c1cnccn1)B(O)O [Bortezomib] (partner 0.002 µM) (assay: relative viability (nuclei count vs DMSO), 5 days (fraction); higher = more cells survive). Settings: first compound 0.3162 µM.
Procedure, shortened: (§1)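 One day after seeding in 1536-well plates, lung cancer cell lines were dosed by pin tool. Dosing was either single-drug or a fixed anchor-drug dose plus five library-drug doses (not always all listed) in √10 steps. After 5 days, nuclei were stained in one fix-and-stain step and counted on 4× images, and relative viability is the nuclei count of treated wells over that of vehicle wells, given as the median of duplicate plates.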
With NCI-H647 the relative viability was 1.29. Work on NCI-H650 yielded a relative viability of 0.977. Cell Line NCI-H661 has a relative viability of 0.912. Work on NCI-H838 yielded a relative viability of 0.868. NCI-H1355 showed a relative viability of 1.32. NCI-H1437 gave a relative viability of 0.479. NCI-H1650 gave a relative viability of 0.196. NCI-H1651 showed a relative viability of 0.977. With NCI-H1666 the relative viability was 0.89. Work on NCI-H1734 yielded a relative viability of 0.9. In the case of NCI-H1755, the relative viability was 1.03. For NCI-H1915, the relative viability was 0.975. NCI-H1975 showed a relative viability of 0.399. In the case of NCI-H1993, the relative viability was 1.13. NCI-H2009 gave a relative viability of 1.03. Work on NCI-H2023 yielded a relative viability of 1.04. NCI-H2085 gave a relative viability of 1.05. Cell Line NCI-H2087 has a relative viability of 1.03. NCI-H2126 gave a relative viability of 1.12. With NCI-H2228 the relative viability was 1.35. Cell Line NCI-H2347 has a relative viability of 0.985. For NCI-H2405, the relative viability was 1.03. In the case of NCI-H3122, the relative viability was 1.03. With PC-3 [JPC-3] the relative viability was 0.743. Work on PC-14 yielded a relative viability of 0.828. Cell Line RERF-LC-KJ has a relative viability of 1.29. SK-LU-1 showed a relative viability of 1.1.

Same assay, conditions: first compound 1 µM
Work on LXF-289 yielded a relative viability of 1.01. In the case of NCI-H23, the relative viability was 1.1. Work on NCI-H322M yielded a relative viability of 1.46. NCI-H441 showed a relative viability of 0.567. Work on NCI-H460 yielded a relative viability of 1.1. NCI-H520 was tested, and the relative viability was 0.529. Cell Line NCI-H596 has a relative viability of 0.982. In the case of NCI-H647, the relative viability was 1.14. For NCI-H650, the relative viability was 0.897. With NCI-H661 the relative viability was 0.866. Cell Line NCI-H838 has a relative viability of 0.7. In the case of NCI-H1355, the relative viability was 1.37. NCI-H1437 showed a relative viability of 0.444. In the case of NCI-H1650, the relative viability was 0.233. NCI-H1651 showed a relative viability of 0.817. For NCI-H1666, the relative viability was 0.789. For NCI-H1734, the relative viability was 0.955. Cell Line NCI-H1755 has a relative viability of 1.03. NCI-H1915 was tested, and the relative viability was 0.96. Cell Line NCI-H1975 has a relative viability of 0.404. NCI-H1993 was tested, and the relative viability was 1.04. Cell Line NCI-H2009 has a relative viability of 1.06. For NCI-H2023, the relative viability was 0.934. For NCI-H2085, the relative viability was 0.889. NCI-H2087 showed a relative viability of 0.793. Work on NCI-H2126 yielded a relative viability of 1.01. Cell Line NCI-H2228 has a relative viability of 1.03. Work on NCI-H2347 yielded a relative viability of 1.3. For NCI-H2405, the relative viability was 0.954. Work on NCI-H3122 yielded a relative viability of 1.02. PC-3 [JPC-3] showed a relative viability of 0.776. For PC-14, the relative viability was 0.841. Work on RERF-LC-KJ yielded a relative viability of 1.33. SK-LU-1 showed a relative viability of 1.13.

The cell lines below were run with COc1nc(N)nc2c1ncn2[C@@H]1O[C@H](CO)[C@@H](O)[C@@H]1O [Nelarabine] + Cc1nc(Nc2ncc(C(=O)Nc3c(C)cccc3Cl)s2)cc(N2CCN(CCO)CC2)n1 [Dasatinib] (partner 0.075 µM) in the same assay as above. Settings: first compound 0.01 µM.
Procedure, shortened: as §1
In the case of LXF-289, the relative viability was 0.156. In the case of NCI-H23, the relative viability was 1.01. NCI-H322M gave a relative viability of 0.268. NCI-H441 was tested, and the relative viability was 0.598. NCI-H460 was tested, and the relative viability was 0.66. For NCI-H520, the relative viability was 0.245. NCI-H596 gave a relative viability of 0.752. NCI-H647 showed a relative viability of 0.152. For NCI-H650, the relative viability was 0.501. In the case of NCI-H661, the relative viability was 1. Cell Line NCI-H838 has a relative viability of 0.276. Cell Line NCI-H1355 has a relative viability of 0.849. Work on NCI-H1437 yielded a relative viability of 0.554. Work on NCI-H1650 yielded a relative viability of 0.265. For NCI-H1651, the relative viability was 0.4. In the case of NCI-H1666, the relative viability was 0.835. NCI-H1734 gave a relative viability of 0.559. In the case of NCI-H1755, the relative viability was 0.457. In the case of NCI-H1915, the relative viability was 0.337.
